System: differentiated HL-60 cells
Experiment: ROS production induced by PMA in HL-60 cells differentiated into neutrophil cells (L-012 luminescence)
Format: cell-based, human
Conditions: Homo sapiens, HL-60, synthetic example compounds 0.5 uM, read-out: ROS production inhibitory effect
Source text: (§1) In order to confirm an effect of the synthetic example compounds on ROS production from fibroblasts and specific substrate cells, ROS production was induced by stimulation of PMA (phorbol 12-myristate 13-acetate), TGF-β1, palmitate or high concentration-glucose, or the like for HL-60 cells (Korean Cell Line Bank), NHLF(normal human lung fibroblast, Lonza), LX-2 (human hepatic stellate cells, Sigma), ARPE19 (human retinal pigment epithelial cell, ATCC), KEL-FIB (Keloid fibroblast, ATCC) cells differentiated into neutrophil cells by treatment of DMSO, and the inhibitory effect of ROS production of the synthetic example compounds was observed under this condition.
HL-60 cells (human leukemia cells, ATCC) was suspended in a medium comprising 1.25% DMSO (RPMI+10% FBS) and cultured under the condition of 5% CO2, 37° C. for 6 days to induce differentiation into neutrophil cells. […] Then, PMA of […] was treated in each well comprising cells and a drug to induce production of ROS, and this ROS production was measured by observing the level of luminescence of each well using 100 μM L-012.

SMILES	inhibition at 0.5 µM
Oc1c2c(nn1-c1ccccc1)CN(Cc1ccccc1)CC2 [compound 38]	> 70%
Oc1c2c(nn1-c1ccc(Cl)cn1)CN(Cc1ccccc1)CC2 [compound 35]	50 to 70%
CCN1CCc2c(nn(-c3ccccn3)c2O)C1 [compound 15]	< 30%
Oc1c2c(nn1-c1ccccn1)CN(Cc1cccc(C(F)(F)F)c1)CC2 [compound 10]	30 to 50%
Oc1c2c(nn1-c1ccccc1Cl)CCN(Cc1ccccc1)C2 [compound 42]	< 30%
N#Cc1ccc(CN2CCc3nn(-c4ccccn4)c(O)c3C2)cc1 [compound 75]	50 to 70%
O=C(OCc1ccc([N+](=O)[O-])cc1)N1CCc2c(nn(-c3ccccn3)c2O)C1 [compound 32]	30 to 50%
Oc1c2c(nn1-c1ccc(C(F)(F)F)cn1)CN(Cc1ccccc1)CC2 [compound 4]	30 to 50%
C#CCN1CCc2c(nn(-c3ccccn3)c2O)C1 [compound 16]	< 30%
Cc1ccc(CN2CCc3c(nn(-c4ccccn4)c3O)C2)cc1 [compound 7]	30 to 50%
O=S(=O)(c1ccccc1)N1CCc2c(nn(-c3ccccn3)c2O)C1 [compound 26]	50 to 70%
Oc1c2c(nn1-c1ccccn1)CN(Cc1cc(F)cc(F)c1)CC2 [compound 9]	50 to 70%
Oc1c2c(nn1-c1ccc(C(F)(F)F)cn1)CCN(Cc1cccc(C(F)(F)F)c1)C2 [compound 50]	30 to 50%
Oc1c2c(nn1-c1ccc(C(F)(F)F)cn1)CCN(Cc1ccccc1)C2 [compound 39]	< 30%
Oc1c2c(nn1-c1ccccn1)CCN(Cc1cc3ccccc3cn1)C2 [compound 79]	50 to 70%
Oc1c2c(nn1-c1ccccn1)CCCC2 [compound 1]	< 30%
Oc1c2c(nn1-c1ccc(Br)cc1)CN(Cc1ccccc1)CC2 [compound 37]	> 70%
Oc1c2c(nn1-c1ccc(C(F)(F)F)cn1)CCN(Cc1cc3ccccc3cn1)C2 [compound 80]	50 to 70%
N#Cc1ccc(CN2CCc3nn(-c4ccc(C(F)(F)F)cn4)c(O)c3C2)cc1 [compound 76]	30 to 50%
O=C(O)c1ccc(-n2nc3c(c2O)CN(Cc2ccccc2)CC3)cc1 [compound 81]	> 70%
Oc1c2c(nn1-c1ccccn1)CN(Cc1ccc(F)cc1)CC2 [compound 6]	30 to 50%
Oc1c2c(nn1-c1ccc(C(F)(F)F)cn1)CCCC2 [compound 2]	< 30%
O=C(O)c1ccc(-n2nc3c(c2O)CCN(Cc2ccccc2)C3)cc1 [compound 36]	> 70%
Oc1c2c(nn1-c1ccccn1)CN(Cc1ccccc1)CC2 [compound 3]	50 to 70%
O=C(NC1CCCCC1)N1CCc2c(nn(-c3ccccn3)c2O)C1 [compound 23]	< 30%
Oc1c2c(nn1-c1ccccn1)CCN(Cc1cccc(C(F)(F)F)c1)C2 [compound 77]	30 to 50%
Oc1c2c(nn1-c1ccc(Br)cc1)CCN(Cc1ccccc1)C2 [compound 41]	50 to 70%
Oc1c2c(nn1-c1ccccc1)CCN(Cc1ccccc1)C2 [compound 40]	50 to 70%
N#Cc1ccc(CN2CCc3c(nn(-c4ccccn4)c3O)C2)cc1 [compound 8]	50 to 70%
Oc1c2c(nn1-c1ccccn1)CCN(Cc1ccccc1)C2 [compound 34]	30 to 50%

Same assay, conditions: synthetic example compounds 0.5 uM, 0.5 µM

SMILES	ROS production inhibitory effect
Oc1c2c(nn1-c1ccc(C(F)(F)F)cn1)CCN(Cc1cccc(C(F)(F)F)c1)C2 [compound 78]	*** (***: 50 < <70%)

System: NHLF cells
Experiment: ROS production in NHLF cells (L-012 or DCF-DA)
Format: cell-based, human
Conditions: FIG. 1
Source text: as §1
(§2) NHLF (normal human lung fibroblast, Lonza), LX-2 (human hepatic stellate cells, Sigma), ARPE19 (human retinal pigment epithelial cell, ATCC), KEL-FIB (keloid fibroblast, ATCC) cells were suspended in a culture medium comprising 10% FBS and aliquoted in a 96 well plate, and then cultured under the condition of 5% CO2, 37° C. for 24 hours. The synthetic example compound was pretreated from 30 minutes to 1 hour, and then a ROS stimulus was treated to each well comprising cells and a drug. After additional culturing for 48 hours, the level of ROS production was confirmed by using L-012 or DCF-DA.

SMILES	inhibition of ROS production induced by PMA
Oc1c2c(nn1-c1ccccn1)CCN(Cc1ccccc1)C2 [Synthetic example 34, 5-benzyl-2-(pyridin-2-yl)-4,5,6,7-tetrahydro-2H-pyrazolo[4,3-c]pyridin-3-ol]	inhibited ROS production

System: bleomycin-induced pulmonary fibrosis mouse model
Experiment: Bleomycin-induced pulmonary fibrosis mouse model
Format: in vivo
Conditions: BLM+NIN; 100 mg/kg orally once a day for 28 days; BLM group 5.4±0.5, negative control 0.4±0.55
Procedure: As a bleomycin-induced pulmonary fibrosis mouse model, 5-week-old, C57BL/6J male mice weighing 20 g before and after were used. The experiment was progressed by dividing the experimental animals into a control group in which distilled water was orally administered (Control), a group in which pulmonary fibrosis was caused by bleomycin (BLM), an experimental group in which bleomycin was administered and in 3 weeks, as a positive control group, nintedanib of 100 mg/kg was orally administered daily (BLM+NIN), and an experimental group in which bleomycin was administered and in 3 weeks, the synthetic example compound of the present invention of 3 mg/kg was orally administered daily (BLM+Synthetic example) as 7 mice per group.
The nintedanib and synthetic example compound was orally administered once a day for 28 days. […]
Comprehensively, based on the above histological and immunological results, by quantifying with improved Ashcroft scores (modified Ashcroft scale) widely used in the pulmonary fibrosis tissue analysis field, the severity of pulmonary fibrosis of each of the synthetic example compound administration groups (BLM+Synthetic example) compared to the negative control group (control), experimental group (BLM), positive control group was evaluated. […] For the experimental result, the mean and standard deviation were calculated using SPSS ver. […]

SMILES	improved Ashcroft score (modified Ashcroft scale)
COC(=O)c1ccc2c(c1)NC(=O)/C2=C(\Nc1ccc(N(C)C(=O)CN2CCN(C)CC2)cc1)c1ccccc1 [nintedanib]	5.0±0

System: LX-2 cells
Experiment: ROS production in LX-2 cells (L-012 or DCF-DA)
Format: cell-based, human
Conditions: FIG. 1
Source text: as §1, §2

SMILES	inhibition of ROS production induced by PMA
Oc1c2c(nn1-c1ccccn1)CCN(Cc1ccccc1)C2 [Synthetic example 34, 5-benzyl-2-(pyridin-2-yl)-4,5,6,7-tetrahydro-2H-pyrazolo[4,3-c]pyridin-3-ol]	inhibited ROS production

System: STAM mice
Experiment: Non-alcoholic steatohepatitis and liver fibrosis STAM mouse model
Format: in vivo
Conditions: STAM+TEL; 10 mg/kg orally once a day for 28 days; STAM+vehicle 0.93±0.36, normal control 0.29±0.06
Source text: In order to confirm the therapeutic effect for non-alcoholic steatohepatitis and liver fibrosis of the synthetic example compound of the present invention, non-alcoholic steatohepatitis and liver fibrosis-induced STAM mice (6-week-old, female, SMC laborlabories Inc, Japan) were used. All the mice were maintained under a standard condition. The experiment was progressed by dividing the experimental animals into a normal control group in which distilled water was orally administered (negative control), STAM group in which non-alcoholic steatohepatitis and fibrosis were induced (vehicle control), an experimental group in which telmisartane of 10 mg/kg was orally administered daily as a STAM positive control group (STAM+TEL), and an experimental group in which the synthetic example compound of 3 or 10 mg/kg was orally administered daily (STAM+Synthetic example) as 7 mice per group. The telmisartane and synthetic example compound were orally administered once a day for 28 days.
After completing the test, the animals were anesthetized and liver tissue was extracted for each individual, and blood was taken for examination. The weight of the liver tissue was measured and it was photographed. The tissue was fixed in 10% buffered neutral formalin solution. […]

SMILES	liver fibrosis area (Sirius red staining)
CCCc1nc2c(C)cc(-c3nc4ccccc4n3C)cc2n1Cc1ccc(-c2ccccc2C(=O)O)cc1 [telmisartane]	0.44±0.15

Same assay, conditions: STAM+TEL; 10 mg/kg orally once a day for 28 days; STAM+vehicle 4.8±0.7, normal control 0.0±0.0

SMILES	improved NAS score
CCCc1nc2c(C)cc(-c3nc4ccccc4n3C)cc2n1Cc1ccc(-c2ccccc2C(=O)O)cc1 [telmisartane]	2.8±0.7
